The molecules below were run against T1, NMDA receptor composed of four subunits including 2 sets of heterodimers of NR1 and NR2B (Homo sapiens, UniProt Q13224) (assay: NR2B Ca2+ influx assay (FLIPR, Fluo-4) in HEK293 cells expressing human GRIN1 and GRIN2B). Conditions: HEK293, 10 μM final compound concentration, glutamic acid/glycine-induced Ca2+ influx, read-out: inhibitory rate (10 μM compound concentration).
T1 construct: host or cells: HEK293 (tetracycline-induced expression)
Type: cell-based
From the text: To confirm the “antagonistic action on an NMDA receptor containing the NR2B subunit” of the compound of the present invention, human embryonic kidney cell expressing the “NMDA receptor composed of four subunits including 2 sets of heterodimers of NR1 and NR2B”, specifically HEK293 cell expressing human glutamate ionotropic receptor NMDA type subunit 1 (GRIN1) and human glutamate ionotropic receptor NMDA type subunit 2B (GRIN2B), was used and the activation suppressive effect on the receptors was measured.
As an index of the NMDA receptor activation, intracellular calcium ion (Ca^2+) influx caused by the binding of glycine and glutamic acid with NR1 and NR2B, respectively, was used. HEK293 cells were purchased from ChanTest. The cells were cultured in a DMEM/F-12 (COSMO BIO, 10-092-CM) medium added with 10% FBS′(fetal bovine serum, AusGene), 100 units/mL penicillin, 100 μg/mL streptomycin, 500 μg/mL neomycin, 100 μg/mL Zeocin, 5 μg/mL Blasticidin at 37° C., 5% CO2. The cells were detached from flask with trypsin the day before the assay, suspended in a seeding medium (DMEM (Invitrogen, 31053) added with 10% FBS, 100 units/mL penicillin, 100 μg/mL streptomycin) at 8×10^5 cells/mL, seeded by 25 μL per well in a 384-well plate (Falcon, 356663) at 20000 cells/well, and cultured overnight in an incubator. On the day of the assay, tetracycline (Wako Pure Chemical Industries, Ltd., 209-16561) was diluted with the seeding medium at 2 μg/mL, added at […] to the plate seeded with the cells, and cultured for 2 hr in an incubator. Thereafter, the medium was removed, and the cells were washed with 50 μL/well assay buffer (137 mM NaCl, 4 mM KCl, 1.8 mM CaCl2, 10 mM HEPES (pH 7.2), 10 mM Glucose, 0.1% BSA). Then, a loading buffer (assay buffer added with 2.5 uM Fluo-4AM, 2 mM Amaranth, 1 mM Tartrazine) was added at 25 μL/well, and loading was performed in the incubator for 30 min, and at room temperature for 15 min. A solution (25 μL) of the Example compound diluted with the above-mentioned assay buffer at 30 μM (final concentration 10 μM) was added, and the cells were stood for 15 min at room temperature. Using FLIPR (Molecular Devices), 25 μL of an assay buffer containing 30 μM glutamic acid, 30 μM glycine was added, and the fluorescence signal was measured every 3 seconds for 5 min. The inhibitory activity was calculated as a relative activity value (inhibitory rate) that inhibits 100% of the cumulative value of the fluorescence value of a well added with a buffer free of glutamic acid, glycine, relative to the cumulative value of the fluorescence value of each well.

T1 sequence (Q13224 27-1484, other chains not shown): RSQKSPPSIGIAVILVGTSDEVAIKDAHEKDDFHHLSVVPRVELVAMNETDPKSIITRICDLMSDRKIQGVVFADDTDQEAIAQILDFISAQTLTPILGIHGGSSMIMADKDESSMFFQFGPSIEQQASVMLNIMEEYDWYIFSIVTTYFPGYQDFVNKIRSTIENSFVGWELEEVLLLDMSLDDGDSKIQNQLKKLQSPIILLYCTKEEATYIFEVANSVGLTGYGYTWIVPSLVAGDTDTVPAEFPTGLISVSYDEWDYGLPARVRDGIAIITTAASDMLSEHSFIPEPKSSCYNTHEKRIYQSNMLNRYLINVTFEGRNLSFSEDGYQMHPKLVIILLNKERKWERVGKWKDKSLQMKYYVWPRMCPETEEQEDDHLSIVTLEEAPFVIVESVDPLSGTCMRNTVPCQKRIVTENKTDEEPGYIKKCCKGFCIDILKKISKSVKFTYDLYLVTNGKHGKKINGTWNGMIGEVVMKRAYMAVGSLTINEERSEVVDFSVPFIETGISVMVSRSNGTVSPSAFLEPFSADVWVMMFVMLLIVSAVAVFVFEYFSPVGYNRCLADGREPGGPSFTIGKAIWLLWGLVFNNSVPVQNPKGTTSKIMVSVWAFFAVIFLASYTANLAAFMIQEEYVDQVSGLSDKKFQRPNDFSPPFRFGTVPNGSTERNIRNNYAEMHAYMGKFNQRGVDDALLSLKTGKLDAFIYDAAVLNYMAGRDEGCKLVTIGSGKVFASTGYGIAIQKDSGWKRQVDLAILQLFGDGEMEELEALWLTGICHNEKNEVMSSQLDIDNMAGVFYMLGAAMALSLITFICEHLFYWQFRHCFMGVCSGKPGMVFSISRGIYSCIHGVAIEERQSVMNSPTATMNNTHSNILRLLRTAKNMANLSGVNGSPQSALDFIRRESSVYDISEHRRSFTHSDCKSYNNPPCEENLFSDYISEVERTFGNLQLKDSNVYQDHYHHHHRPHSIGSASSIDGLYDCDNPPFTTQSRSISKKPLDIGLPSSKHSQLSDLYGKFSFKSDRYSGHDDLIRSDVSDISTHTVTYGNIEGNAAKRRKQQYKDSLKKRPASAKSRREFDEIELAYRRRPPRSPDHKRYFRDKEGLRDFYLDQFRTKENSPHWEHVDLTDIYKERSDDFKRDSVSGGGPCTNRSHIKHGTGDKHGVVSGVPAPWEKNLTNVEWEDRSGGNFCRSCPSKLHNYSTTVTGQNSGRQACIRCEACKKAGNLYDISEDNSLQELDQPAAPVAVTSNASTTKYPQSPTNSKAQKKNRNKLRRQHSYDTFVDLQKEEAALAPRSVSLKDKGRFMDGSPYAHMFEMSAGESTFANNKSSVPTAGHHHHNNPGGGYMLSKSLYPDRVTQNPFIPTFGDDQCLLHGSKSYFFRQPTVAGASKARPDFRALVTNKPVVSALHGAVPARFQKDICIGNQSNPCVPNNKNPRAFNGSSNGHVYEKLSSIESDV

inhibition at 10 µM [%] | Structure (SMILES)
82 | Cc1ccc2nn(C)cc2c1CNC(=O)c1ccc(OC(F)(F)F)cc1 [Example 1, N-((2,5-dimethyl-2H-indazol-4-yl)methyl)-4-(trifluoromethoxy)benzamide]
92 | Cc1ccc2[nH]ncc2c1CNC(=O)c1ccc(OC(F)(F)F)cc1 [Example 2, N-((5-methyl-1H-indazol-4-yl)methyl)-4-(trifluoromethoxy)benzamide]
97 | Cc1ccc2[nH]cnc2c1CNC(=O)c1ccc(OC(F)(F)F)cc1 [Example 3, N-((5-methyl-1H-benzimidazol-4-yl)methyl)-4-(trifluoromethoxy)benzamide]
87 | O=C(NCc1c(I)ccc2[nH]ncc12)c1ccc(OC(F)(F)F)cc1 [Example 4, N-((5-iodo-1H-indazol-4-yl)methyl)-4-(trifluoromethoxy)benzamide]
85 | O=C(NCc1c(C(F)(F)F)ccc2[nH]ncc12)c1ccc(OC(F)(F)F)cc1 [Example 5, 4-(trifluoromethoxy)-N-((5-(trifluoromethyl)-1H-indazol-4-yl)methyl)benzamide]
91 | COc1ccc2[nH]ncc2c1CNC(=O)c1ccc(OC(F)(F)F)cc1 [Example 6, N-((5-methoxy-1H-indazol-4-yl)methyl)-4-(trifluoromethoxy)benzamide]
93 | O=C(NCc1cccc2[nH]ncc12)c1ccc(OC(F)(F)F)cc1 [Example 7, N-(1H-indazol-4-ylmethyl)-4-(trifluoromethoxy)benzamide]
92 | COc1ccc2ncn(C)c2c1CNC(=O)c1cc(F)c(OC)c(F)c1 [Example 8, 3,5-Difluoro-4-methoxy-N-((6-methoxy-1-methyl-1H-benzimidazol-7-yl)methyl)benzamide]
92 | COc1ccc2ncn(C)c2c1CNC(=O)c1cc(F)c(C)c(F)c1 [Example 9, 3,5-difluoro-N-((6-methoxy-1-methyl-1H-benzimidazol-7-yl)methyl)-4-methylbenzamide]
92 | COc1ccc2ncn(C)c2c1CNC(=O)c1cnc(OC)c(F)c1 [Example 10, 5-fluoro-6-methoxy-N-((6-methoxy-1-methyl-1H-benzimidazol-7-yl)methyl)nicotinamide]
92 | COc1ccc(C(=O)NCc2c(OC)ccc3ncn(C)c23)cc1F [Example 11, 3-fluoro-4-methoxy-N-((6-methoxy-1-methyl-1H-benzimidazol-7-yl)methyl)benzamide]
94 | COc1ccc2ncn(C)c2c1CNC(=O)c1ccc(OC(F)(F)F)cc1 [Example 12, N-((6-methoxy-1-methyl-1H-benzimidazol-7-yl)methyl)-4-(trifluoromethoxy)benzamide]
94 | COc1ccc2ncn(C)c2c1CNC(=O)c1ccc(C(F)(F)F)c(F)c1 [Example 13, 3-fluoro-N-((6-methoxy-1-methyl-1H-benzimidazol-7-yl)methyl)-4-(trifluoromethyl)benzamide]
92 | COc1ccc2ncn(C)c2c1CNC(=O)c1ccc(C)c(F)c1 [Example 14, 3-fluoro-N-((6-methoxy-1-methyl-1H-benzimidazol-7-yl)methyl)-4-methylbenzamide]
95 | COc1ccc2ncn(C)c2c1CNC(=O)c1cc(F)c(Cl)c(F)c1 [Example 15, 4-chloro-3,5-difluoro-N-((6-methoxy-1-methyl-1H-benzimidazol-7-yl)methyl)benzamide]
94 | CCc1ccc2[nH]ncc2c1CNC(=O)c1cc(F)c(OC)c(F)c1 [Example 16, N-((5-ethyl-1H-indazol-4-yl)methyl)-3,5-difluoro-4-methoxybenzamide]
93 | COc1c(F)cc(C(=O)NCc2c(C3CC3)ccc3[nH]ncc23)cc1F [Example 17, N-((5-cyclopropyl-1H-indazol-4-yl)methyl)-3,5-difluoro-4-methoxybenzamide]
87 | COc1ccc2ncn(C)c2c1CNC(=O)c1cc(F)c(F)c(Cl)c1 [Example 18, 3-chloro-4,5-difluoro-N-((6-methoxy-1-methyl-1H-benzimidazol-7-yl)methyl)benzamide]

inhibition at 10 µM [%] | Structure (SMILES)
83 | COc1ncc(C(=O)NCc2c(C)ccc3ncn(C)c23)cc1F [Example 19, N-((1,6-dimethyl-1H-benzimidazol-7-yl)-methyl)-5-fluoro-6-methoxynicotinamide]
90 | COc1ncc(C(=O)NCc2c(C3CC3)ccc3ncn(C)c23)cc1F [Example 20, N-((6-cyclopropyl-1-methyl-1H-benzimidazol-7-yl)methyl)-5-fluoro-6-methoxynicotinamide]
91 | COc1c(F)cc(C(=O)NCc2c(C3CC3)ccc3ncn(C)c23)cc1F [Example 21]
90 | CCc1ccc2ncn(C)c2c1CNC(=O)c1cnc(OC)c(F)c1 [Example 22, N-((6-ethyl-1-methyl-1H-benzimidazol-7-yl)-methyl)-5-fluoro-6-methoxynicotinamide]
93 | CCc1ccc2ncn(C)c2c1CNC(=O)c1cc(F)c(OC)c(F)c1 [Example 23, N-((6-ethyl-1-methyl-1H-benzimidazol-7-yl)-methyl)-3,5-difluoro-4-methoxybenzamide]
90 | COc1ccc2ncn(C)c2c1CNC(=O)c1cc(F)c(C(F)(F)F)c(F)c1 [Example 24, 3,5-difluoro-N-((6-methoxy-1-methyl-1H-benzimidazol-7-yl)-methyl)-4-(trifluoro-methyl)benzaraide]
92 | COc1c(F)cc(C(=O)NCc2c(C)ccc3ncn(C)c23)cc1F [Example 25, N-((1,6-dimethyl-1H-benzimidazol-7-yl)-methyl)-3,5-difluoro-4-methoxybenzamide]
66 | Cc1ccc2ncn(C)c2c1CNC(=O)c1cc(F)c(C(F)(F)F)c(F)c1 [Example 26, N-((1,6-dimethyl-1H-benzimidazol-7-yl)-methyl)-3,5-difluoro-4-(trifluoromethyl)benzamide]
82 | COc1ccc2ncn(C)c2c1CNC(=O)c1csc(C)c1 [Example 27, N-((6-methoxy-1-methyl-1H-benzimidazol-7-yl)-methyl)-5-methylthiophene-3-carboxamide]
90 | COc1ccc2ncn(C)c2c1CNC(=O)c1csc(Cl)c1 [Example 28, 5-chloro-N-((6-methoxy-1-methyl-1H-benzimidazol-7-yl)nethyl)thiophene-3-carboxamide]
91 | CCc1cc(C(=O)NCc2c(OC)ccc3ncn(C)c23)cs1 [Example 29]
90 | Cc1ccc2ncn(C)c2c1CNC(=O)c1ccc(OC(F)(F)F)c(F)c1 [Example 30, N-((1,6-dimethyl-1H-benzimidazol-7-yl)-methyl)-3-fluoro-4-(trifluoromethoxy)-benzamide]
91 | Cc1ccc2ncn(C)c2c1CNC(=O)c1ccc(OC(F)F)c(Cl)c1 [Example 31, 3-chloro-4-(difluoromethoxy)-N-((1,6-dimethyl-1H-benzimidazol-7-yl)methyl)benzamide]
77 | COc1ccc2ncn(C)c2c1CNC(=O)c1ccc(C)s1 [Example 32, N-((6-methoxy-1-methyl-1H-benzimidazol-7-yl)methyl)-5-methylthiophene-2-carboxamide]
86 | COc1ccc2ncn(C)c2c1CNC(=O)Cc1cccs1 [Example 33, N-((6-methoxy-1-methyl-1H-benzimidazol-7-yl)methyl)-2-(2-thienyl)acetamide]
89 | COc1ccc(C(=O)NCc2c(OC)ccc3ncn(C)c23)cc1Cl [Example 34, 3-chloro-4-methoxy-N-((6-methoxy-1-methyl-1H-benzimidazol-7-yl)methyl)benzamide]
77 | COc1ccc2ncn(C)c2c1CNC(=O)c1cc(C)c(OC)c(C)c1 [Example 35, 4-methoxy-N-((6-methoxyl-methyl-1H-benzimidazol-7-yl)methyl)-3,5-dimethylbenzamide]
89 | COc1ccc2ncn(C)c2c1CNC(=O)c1ccc(Cl)s1 [Example 36, 5-chloro-N-((6-methoxy-1-methyl-1H-benzimidazol-7-yl)methyl)-thiophene-2-carboxamide]

Source: US11230541B2, “Heterocyclic compound” (Takeda Pharmaceutical Company Limited, priority 2017, dated 2022)
